Target: recombinant DYRK1A kinase (Homo sapiens, UniProt Q13627)
Assay: DYRK1A kinase assay (Ser/Thr 18 peptide Z-lyte FRET)
Assay type: biochemical
Settings: DYRK1A 0.25 μg/mL, ATP 15 μM, Ser/Thr peptide 18 4 μM, one hour at room temperature, 11-point dose-response from 10 μM

| IC50 [nM] | Structure (SMILES) |
| --- | --- |
| 1.4 | C[C@]1(O)CC[C@H](Nc2nc(N)c3c(-c4ccc5nnn(CC(F)F)c5n4)c(F)cn3n2)CC1 [Compound 257, (1r,4r)-4-((4-Amino-5-(3-(2,2-difluoroethyl)-3H-[1,2,3]triazolo[4,5-b]pyridin-5-yl)-6-fluoropyrrolo[2,1-f][1,2,4]triazin-2-yl)amino)-1-methylcyclohexan-1-ol] |
| 1.3 | CC(=O)N1CC[C@H](Nc2nc(N)c3c(-c4ccc5nnn(CC(F)F)c5n4)c(F)cn3n2)[C@H](F)C1 [Compound 258, 1-((3R,4S)-4-((4-amino-5-(3-(2,2-difluoroethyl)-3H-[1,2,3]triazolo[4,5-b]pyridin-5-yl)-6-fluoropyrrolo[2,1-f][1,2,4]triazin-2-yl)amino)-3-fluoropiperidin-1-yl)ethan-1-one] |
| 1.8 | Nc1nc(N[C@H]2CCN(C3COC3)C[C@H]2F)nn2cc(F)c(-c3ccc4nnn(CC(F)F)c4n3)c12 [Compound 260, 5-(3-(2,2-Difluoroethyl)-3H-[1,2,3]triazolo[4,5-b]pyridin-5-yl)-6-fluoro-N^2-((3R,4S)-3-fluoro-1-(oxetan-3-yl)piperidin-4-yl)pyrrolo[2,1-f][1,2,4]triazine-2,4-diamine] |
| 0.6 | CN1CC[C@@H](Nc2nc(N)c3c(-c4ccc5nnn(CC(F)F)c5n4)c(F)cn3n2)C(F)(F)C1 [Compound 261, (R)—N^2-(3,3-Difluoro-1-methylpiperidin-4-yl)-5-(3-(2,2-difluoroethyl)-3H-[1,2,3]triazolo[4,5-b]pyridin-5-yl)-6-fluoropyrrolo[2,1-f][1,2,4]triazine-2,4-diamine] |
| 1.3 | CC(=O)N1CC[C@@H](Nc2nc(N)c3c(-c4ccc5nnn(CC(F)F)c5n4)c(F)cn3n2)C(F)(F)C1 [Compound 262, (R)-1-(4-((4-Amino-5-(3-(2,2-difluoroethyl)-3H-[1,2,3]triazolo[4,5-b]pyridin-5-yl)-6-fluoropyrrolo[2,1-f][1,2,4]triazin-2-yl)amino)-3,3-difluoropiperidin-1-yl)ethan-1-one] |
| 1.2 | Nc1nc(N[C@@H]2CCN(C3COC3)CC2(F)F)nn2cc(F)c(-c3ccc4nnn(CC(F)F)c4n3)c12 [Compound 264, (R)—N^2-(3,3-Difluoro-1-(oxetan-3-yl)piperidin-4-yl)-5-(3-(2,2-difluoroethyl)-3H-[1,2,3]triazolo[4,5-b]pyridin-5-yl)-6-fluoropyrrolo[2,1-f][1,2,4]triazine-2,4-diamine] |
| 3.6 | CNc1nc(N[C@H]2CC[C@](C)(O)CC2)nn2cc(F)c(-c3ccc4nnn(CC(F)F)c4n3)c12 [Compound 286, (1r,4r)-4-((5-(3-(2,2-Difluoroethyl)-3H-[1,2,3]triazolo[4,5-b]pyridin-5-yl)-6-fluoro-4-(methylamino)pyrrolo[2,1-f][1,2,4]triazin-2-yl)amino)-1-methylcyclohexan-1-ol] |
| 2.4 | CNc1nc(N[C@H]2CCN(C(C)=O)C[C@H]2F)nn2cc(F)c(-c3ccc4nnn(CC(F)F)c4n3)c12 [Compound 288, 1-((3R,4S)-4-((5-(3-(2,2-Difluoroethyl)-3H-[1,2,3]triazolo[4,5-b]pyridin-5-yl)-6-fluoro-4-(methylamino)pyrrolo[2,1-f][1,2,4]triazin-2-yl)amino)-3-fluoropiperidin-1-yl)ethan-1-one] |
| 1.2 | CNc1nc(N[C@@H]2CCN(C)CC2(F)F)nn2cc(F)c(-c3ccc4nnn(CC(F)F)c4n3)c12 [Compound 291, (R)—N^2-(3,3-Difluoro-1-methylpiperidin-4-yl)-5-(3-(2,2-difluoroethyl)-3H-[1,2,3]triazolo[4,5-b]pyridin-5-yl)-6-fluoro-N^4-methylpyrrolo[2,1-f][1,2,4]triazine-2,4-diamine] |
| 1.9 | CNc1nc(N[C@@H]2CCN(C(C)=O)CC2(F)F)nn2cc(F)c(-c3ccc4nnn(CC(F)F)c4n3)c12 [Compound 293, (R)-1-(4-((5-(3-(2,2-Difluoroethyl)-3H-[1,2,3]triazolo[4,5-b]pyridin-5-yl)-6-fluoro-4-(methylamino)pyrrolo[2,1-f][1,2,4]triazin-2-yl)amino)-3,3-difluoropiperidin-1-yl)ethan-1-one] |

Further lines, the compound ahead of its results:

| Structure (SMILES) | IC50 [nM] |
| --- | --- |
| CNc1nc(N[C@@H]2CCN(C)CC2(F)F)nn2cc(F)c(-c3ccc4nnn(CCF)c4n3)c12 [Compound 251, (R)—N^2-(3,3-Difluoro-1-methylpiperidin-4-yl)-6-fluoro-5-(3-(2-fluoroethyl)-3H-[1,2,3]triazolo[4,5-b]pyridin-5-yl)-N^4-methylpyrrolo[2,1-f][1,2,4]triazine-2,4-diamine] | 2.2 |
| CNc1nc(N[C@@H]2CCN(C(C)=O)CC2(F)F)nn2cc(F)c(-c3ccc4nnn(CCF)c4n3)c12 [Compound 252, (R)-1-(3,3-Difluoro-4-((6-fluoro-5-(3-(2-fluoroethyl)-3H-[1,2,3]triazolo[4,5-b]pyridin-5-yl)-4-(methylamino)pyrrolo[2,1-f][1,2,4]triazin-2-yl)amino)piperidin-1-yl)ethan-1-one] | 1.9 |
| CNc1nc(N[C@@H]2CCN(C3COC3)CC2(F)F)nn2cc(F)c(-c3ccc4nnn(CCF)c4n3)c12 [Compound 254, (R)—N^2-(3,3-Difluoro-1-(oxetan-3-yl)piperidin-4-yl)-6-fluoro-5-(3-(2-fluoroethyl)-3H-[1,2,3]triazolo[4,5-b]pyridin-5-yl)-N^4-methylpyrrolo[2,1-f][1,2,4]triazine-2,4-diamine] | 2.2 |
| COCCN1CC[C@H](Nc2nc(N)c3c(-c4ccc5nnn(CC(F)F)c5n4)ccn3n2)[C@H](F)C1 [Compound 256, 5-(3-(2,2-Difluoroethyl)-3H-[1,2,3]triazolo[4,5-b]pyridin-5-yl)-N^2-((3R,4S)-3-fluoro-1-(2-methoxyethyl)piperidin-4-yl)pyrrolo[2,1-f][1,2,4]triazine-2,4-diamine] | 3.5 |
| CC[C@]1(O)C[C@H](Nc2nc(NC)c3c(-c4ccc5nnn(CC(F)F)c5n4)ccn3n2)C1 [Compound 267, (1r,3s)-3-((5-(3-(2,2-Difluoroethyl)-3H-[1,2,3]triazolo[4,5-b]pyridin-5-yl)-4-(methylamino)pyrrolo[2,1-f][1,2,4]triazin-2-yl)amino)-1-ethylcyclobutan-1-ol] | 0.5 |
| CNc1nc(NC2CCN(CC(F)F)CC2)nn2ccc(-c3ccc4nnn(CC(F)F)c4n3)c12 [Compound 270, 5-(3-(2,2-Difluoroethyl)-3H-[1,2,3]triazolo[4,5-b]pyridin-5-yl)-N^2-(1-(2,2-difluoroethyl)piperidin-4-yl)-N^4-methylpyrrolo[2,1-f][1,2,4]triazine-2,4-diamine] | 1.7 |
| CNc1nc(NC2CCN(C3COC3)CC2)nn2ccc(-c3ccc4nnn(CC(F)F)c4n3)c12 [Compound 271, 5-(3-(2,2-Difluoroethyl)-3H-[1,2,3]triazolo[4,5-b]pyridin-5-yl)-N^4-methyl-N^2-(1-(oxetan-3-yl)piperidin-4-yl)pyrrolo[2,1-f][1,2,4]triazine-2,4-diamine] | 2.9 |
| CNc1nc(N[C@@H]2CCN(C)C[C@@H]2F)nn2ccc(-c3ccc4nnn(CC(F)F)c4n3)c12 [Compound 272, 5-(3-(2,2-Difluoroethyl)-3H-[1,2,3]triazolo[4,5-b]pyridin-5-yl)-N^2-((3S,4R)-3-fluoro-1-methylpiperidin-4-yl)-N^4-methylpyrrolo[2,1-f][1,2,4]triazine-2,4-diamine] | 5 |
| CNc1nc(N[C@H]2CCN(C)C[C@H]2F)nn2ccc(-c3ccc4nnn(CC(F)F)c4n3)c12 [Compound 273, 5-(3-(2,2-Difluoroethyl)-3H-[1,2,3]triazolo[4,5-b]pyridin-5-yl)-N^2-((3R,4S)-3-fluoro-1-methylpiperidin-4-yl)-N^4-methylpyrrolo[2,1-f][1,2,4]triazine-2,4-diamine] | 2.7 |
| CNc1nc(N[C@H]2CCN(CCF)C[C@H]2F)nn2ccc(-c3ccc4nnn(CC(F)F)c4n3)c12 [Compound 274, 5-(3-(2,2-Difluoroethyl)-3H-[1,2,3]triazolo[4,5-b]pyridin-5-yl)-N^2-((3R,4S)-3-fluoro-1-(2-fluoroethyl)piperidin-4-yl)-N^4-methylpyrrolo[2,1-f][1,2,4]triazine-2,4-diamine] | 3.6 |
| CNc1nc(N[C@H]2CCN(CCOC)C[C@H]2F)nn2ccc(-c3ccc4nnn(CC(F)F)c4n3)c12 [Compound 275, 5-(3-(2,2-Difluoroethyl)-3H-[1,2,3]triazolo[4,5-b]pyridin-5-yl)-N^2-((3R,4S)-3-fluoro-1-(2-methoxyethyl)piperidin-4-yl)-N^4-methylpyrrolo[2,1-f][1,2,4]triazine-2,4-diamine] | 8.4 |
| CNc1nc(N[C@@H]2CCN(C(=O)CO)CC2(F)F)nn2ccc(-c3ccc4nnn(CC(F)F)c4n3)c12 [Compound 276, (R)-1-(4-((5-(3-(2,2-Difluoroethyl)-3H-[1,2,3]triazolo[4,5-b]pyridin-5-yl)-4-(methylamino)pyrrolo[2,1-f][1,2,4]triazin-2-yl)amino)-3,3-difluoropiperidin-1-yl)-2-hydroxyethan-1-one] | 1.2 |
| CNc1nc(N[C@H]2CCN(C3COC3)C[C@H]2F)nn2cc(F)c(-c3ccc4nnn(CC(F)F)c4n3)c12 [Compound 290, 5-(3-(2,2-Difluoroethyl)-3H-[1,2,3]triazolo[4,5-b]pyridin-5-yl)-6-fluoro-N^2-((3R,4S)-3-fluoro-1-(oxetan-3-yl)piperidin-4-yl)-N^4-methylpyrrolo[2,1-f][1,2,4]triazine-2,4-diamine] | 1.2 |
| CNc1nc(N[C@@H]2CCN(C3COC3)CC2(F)F)nn2cc(F)c(-c3ccc4nnn(CC(F)F)c4n3)c12 [Compound 295, (R)—N^2-(3,3-Difluoro-1-(oxetan-3-yl)piperidin-4-yl)-5-(3-(2,2-difluoroethyl)-3H-[1,2,3]triazolo[4,5-b]pyridin-5-yl)-6-fluoro-N^4-methylpyrrolo[2,1-f][1,2,4]triazine-2,4-diamine] | 1.4 |
| CNc1nc(N[C@H]2CCN(C)C[C@H]2F)nn2ccc(-c3ccc4nnn(CCCF)c4n3)c12 [Compound 333, N^2-((3R,4S)-3-Fluoro-1-methylpiperidin-4-yl)-5-(3-(3-fluoropropyl)-3H-[1,2,3]triazolo[4,5-b]pyridin-5-yl)-N^4-methylpyrrolo[2,1-f][1,2,4]triazine-2,4-diamine] | 11.2 |

Source: US20250340575A1, “4-AMINOPYRROLO[2,1-F][1,2,4]TRIAZINES AND PREPARATION AND USES THEREOF” (Biosplice Therapeutics, Inc., priority 2024, published 2025)
